Results taken from ChEMBL document CHEMBL3817791, “Discovery of 4-(4-aminopyrazolo[1,5-a][1,3,5]triazin-8-yl)benzamides as novel, highly potent and selective, orally bioavailable inhibitors of Tyrosine Threonine Kinase, TTK” (Bioorg Med Chem Lett, 2016).

Experiments:
[1] = biological target: Aurora kinase B/Inner centromere protein (Homo sapiens, UniProt Q96GD4); assay: Inhibition of recombinant human His-tagged Aurora B/full length recombinant human N-terminal GST-tagged INCENP (821-end residues) expressed in baculovirus infected Sf21 cells by radiometric assay
Sequence of Aurora kinase B/Inner centromere protein (Q96GD4 whole entry): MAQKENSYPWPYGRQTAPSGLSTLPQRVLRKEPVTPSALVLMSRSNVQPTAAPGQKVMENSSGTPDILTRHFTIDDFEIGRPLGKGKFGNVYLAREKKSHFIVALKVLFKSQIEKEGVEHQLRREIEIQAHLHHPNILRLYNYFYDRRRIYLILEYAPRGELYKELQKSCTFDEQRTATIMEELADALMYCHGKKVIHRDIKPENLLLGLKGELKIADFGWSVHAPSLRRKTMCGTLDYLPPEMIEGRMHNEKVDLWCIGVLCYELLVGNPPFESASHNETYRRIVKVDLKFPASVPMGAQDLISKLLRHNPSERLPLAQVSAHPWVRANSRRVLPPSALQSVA
Sequence of Aurora kinase B/Inner centromere protein (Q9NQS7 whole entry, further chain): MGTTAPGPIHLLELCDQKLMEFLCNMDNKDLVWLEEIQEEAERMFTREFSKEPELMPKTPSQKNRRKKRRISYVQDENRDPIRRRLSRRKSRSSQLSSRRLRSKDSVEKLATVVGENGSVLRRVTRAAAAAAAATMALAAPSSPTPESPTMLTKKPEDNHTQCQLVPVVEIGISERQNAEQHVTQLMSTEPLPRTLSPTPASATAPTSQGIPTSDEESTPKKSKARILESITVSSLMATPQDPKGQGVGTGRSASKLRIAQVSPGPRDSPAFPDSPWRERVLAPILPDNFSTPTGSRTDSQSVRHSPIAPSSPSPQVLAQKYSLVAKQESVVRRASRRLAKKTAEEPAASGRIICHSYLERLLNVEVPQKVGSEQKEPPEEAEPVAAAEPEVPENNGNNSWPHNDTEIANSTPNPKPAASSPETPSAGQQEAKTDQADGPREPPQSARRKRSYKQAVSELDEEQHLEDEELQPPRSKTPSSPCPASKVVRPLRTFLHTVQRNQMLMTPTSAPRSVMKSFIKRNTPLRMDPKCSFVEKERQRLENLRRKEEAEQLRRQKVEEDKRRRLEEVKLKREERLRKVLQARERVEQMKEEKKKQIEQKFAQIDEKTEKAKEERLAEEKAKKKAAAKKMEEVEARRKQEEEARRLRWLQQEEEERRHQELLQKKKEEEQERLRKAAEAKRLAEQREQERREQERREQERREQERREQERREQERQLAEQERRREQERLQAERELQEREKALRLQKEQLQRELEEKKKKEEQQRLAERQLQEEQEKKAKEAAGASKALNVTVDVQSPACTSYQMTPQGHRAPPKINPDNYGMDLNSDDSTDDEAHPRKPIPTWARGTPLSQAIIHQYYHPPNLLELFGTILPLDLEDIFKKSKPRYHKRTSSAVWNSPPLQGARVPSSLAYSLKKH

[2] = Half life in mouse microsomes; format: ADME, Microsome
[3] = Half life in human microsomes; format: ADME, Microsome
[4] = Cmax in CD-1 nude mouse at 25 mg/ml, po; format: ADME, organism-based; parameters: dose 25 mg/ml, route oral; conditions: in vivo
[5] = test system: MDA-MB-468; assay: Antiproliferative activity against human MDA-MB-468 cells; format: functional
[6] = test system: HT-29; assay: Antiproliferative activity against human HT-29 cells; format: functional
[7] = Volume of distribution at steady state in Sprague-Dawley rat at 1 mg/ml, iv; format: ADME, organism-based; conditions: in vivo, read-out: Vdss
[8] = Protein binding in human plasma; format: ADME, cell-free; conditions: read-out: PPB (converted)
[9] = test system: MDA-MB-231; assay: Antiproliferative activity against human MDA-MB-231 cells; format: functional
[10] = biological target: Cytochrome P450 3A4 (Homo sapiens, UniProt P08684); assay: Inhibition of CYP3A4 (unknown origin); format: ADME
Sequence of Cytochrome P450 3A4 (P08684 whole entry): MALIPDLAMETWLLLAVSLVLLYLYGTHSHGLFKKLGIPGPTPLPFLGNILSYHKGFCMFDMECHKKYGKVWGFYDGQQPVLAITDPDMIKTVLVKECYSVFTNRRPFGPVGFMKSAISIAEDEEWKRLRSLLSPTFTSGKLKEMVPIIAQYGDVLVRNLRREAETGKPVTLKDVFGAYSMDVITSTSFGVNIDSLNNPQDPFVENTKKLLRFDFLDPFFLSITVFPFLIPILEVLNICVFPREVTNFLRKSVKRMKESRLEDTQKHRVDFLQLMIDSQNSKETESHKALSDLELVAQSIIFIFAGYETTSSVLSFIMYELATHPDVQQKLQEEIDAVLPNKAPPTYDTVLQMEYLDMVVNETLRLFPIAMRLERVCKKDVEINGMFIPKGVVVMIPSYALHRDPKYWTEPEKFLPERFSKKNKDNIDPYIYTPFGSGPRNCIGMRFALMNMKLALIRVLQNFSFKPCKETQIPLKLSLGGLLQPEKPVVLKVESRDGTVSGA

[11] = Cmax in Sprague-Dawley rat at 1 mg/ml, iv; format: ADME, organism-based; parameters: dose 1 mg/ml, route intravenous; conditions: in vivo
[12] = AUC (0 to last) in CD-1 nude mouse at 10 mg/ml, po; format: ADME, organism-based; parameters: dose 10 mg/ml, route oral, time 0 - last; conditions: in vivo
[13] = Cmax in Sprague-Dawley rat at 5 mg/ml, iv; format: ADME, organism-based; parameters: dose 5 mg/ml, route intravenous; conditions: in vivo
[14] = Cmax in CD-1 nude mouse at 70 mg/ml, po; format: ADME, organism-based; parameters: dose 70 mg/ml, route oral; conditions: in vivo
[15] = Oral bioavailability in Sprague-Dawley rat; format: ADME, organism-based; conditions: in vivo
[16] = Cmax in CD-1 nude mouse at 10 mg/ml, po; format: ADME, organism-based; parameters: dose 10 mg/ml, route oral; conditions: in vivo
[17] = biological target: Rho-associated protein kinase 2 (Homo sapiens) (UniProt O75116); assay: Inhibition of recombinant human N-terminal His6-tagged ROCK2 (11 to 552 residues) expressed in baculovirus infected Sf21 cells at 1 uM by radiometric assay relative to control
Sequence of Rho-associated protein kinase 2 (Homo sapiens) (O75116 whole entry, looked up, the tested form may be a part): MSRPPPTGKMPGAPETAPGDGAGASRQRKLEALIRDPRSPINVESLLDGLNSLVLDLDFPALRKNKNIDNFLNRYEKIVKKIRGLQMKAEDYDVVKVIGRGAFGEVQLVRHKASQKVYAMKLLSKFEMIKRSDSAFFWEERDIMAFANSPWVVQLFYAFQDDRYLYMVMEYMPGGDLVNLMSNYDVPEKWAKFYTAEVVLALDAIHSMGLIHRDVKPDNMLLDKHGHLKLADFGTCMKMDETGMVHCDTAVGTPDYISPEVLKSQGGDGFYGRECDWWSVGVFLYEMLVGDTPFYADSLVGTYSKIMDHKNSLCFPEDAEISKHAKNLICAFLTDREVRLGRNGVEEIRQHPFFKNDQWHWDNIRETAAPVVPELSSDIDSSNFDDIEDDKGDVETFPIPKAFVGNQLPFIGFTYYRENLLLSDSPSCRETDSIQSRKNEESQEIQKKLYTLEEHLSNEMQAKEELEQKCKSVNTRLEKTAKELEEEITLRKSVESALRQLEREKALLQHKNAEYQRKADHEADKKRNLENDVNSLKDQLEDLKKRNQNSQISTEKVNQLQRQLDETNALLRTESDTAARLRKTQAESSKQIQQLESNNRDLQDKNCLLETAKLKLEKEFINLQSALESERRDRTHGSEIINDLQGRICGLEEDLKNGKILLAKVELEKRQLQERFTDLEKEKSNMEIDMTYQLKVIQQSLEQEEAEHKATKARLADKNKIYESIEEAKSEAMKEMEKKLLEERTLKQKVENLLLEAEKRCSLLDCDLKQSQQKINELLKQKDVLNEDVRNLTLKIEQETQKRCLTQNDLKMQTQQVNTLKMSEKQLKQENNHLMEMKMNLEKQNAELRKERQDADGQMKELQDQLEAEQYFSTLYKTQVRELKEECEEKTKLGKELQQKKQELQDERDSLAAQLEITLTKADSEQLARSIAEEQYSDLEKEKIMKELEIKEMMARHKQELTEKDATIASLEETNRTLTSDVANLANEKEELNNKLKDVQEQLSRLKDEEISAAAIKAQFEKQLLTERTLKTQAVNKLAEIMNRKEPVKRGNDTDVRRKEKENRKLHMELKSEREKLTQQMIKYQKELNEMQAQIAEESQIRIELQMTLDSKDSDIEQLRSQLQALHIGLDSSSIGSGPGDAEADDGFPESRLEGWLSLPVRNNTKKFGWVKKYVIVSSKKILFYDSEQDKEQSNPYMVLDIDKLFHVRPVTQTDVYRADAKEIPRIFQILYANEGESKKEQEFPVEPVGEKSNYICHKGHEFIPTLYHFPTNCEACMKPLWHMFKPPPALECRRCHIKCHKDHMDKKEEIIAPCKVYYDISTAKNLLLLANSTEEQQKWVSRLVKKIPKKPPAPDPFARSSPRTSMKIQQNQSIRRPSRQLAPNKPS

[18] = Antiproliferative activity against human OVCAR3 cells; format: functional; conditions: OVCAR-3
[19] = AUC (0 to last) in CD-1 nude mouse at 25 mg/ml, po; format: ADME, organism-based; parameters: dose 25 mg/ml, time 0 - last, route oral; conditions: in vivo
[20] = AUC (0 to last) in CD-1 nude mouse at 100 mg/ml, po; format: ADME, organism-based; parameters: dose 100 mg/ml, route oral, time 0 - last; conditions: in vivo
[21] = Antiproliferative activity against human HCT116 cells; format: functional; conditions: HCT-116
[22] = AUC (0 to infinity) in Sprague-Dawley rat at 5 mg/ml, iv; format: ADME, organism-based; parameters: dose 5 mg/ml, route intravenous, time infinity; conditions: in vivo
[23] = Half life in rat microsomes; format: ADME, Microsome
[24] = Half life in Sprague-Dawley rat at 5 mg/ml, iv; format: ADME, organism-based; conditions: in vivo
[25] = Antiproliferative activity against human PA1 cells; format: functional; conditions: PA-1
[26] = Cmax in CD-1 nude mouse at 100 mg/ml, po; format: ADME, organism-based; parameters: dose 100 mg/ml, route oral; conditions: in vivo
[27] = biological target: MAP kinase-activated protein kinase 2 (Homo sapiens) (UniProt P49137); assay: Inhibition of recombinant human N-terminal GST-tagged MAPKAPK2 (46 to 400 residues) expressed in Escherichia coli at 1 uM by radiometric assay relative to control
Sequence of MAP kinase-activated protein kinase 2 (Homo sapiens) (P49137 whole entry, looked up, the tested form may be a part): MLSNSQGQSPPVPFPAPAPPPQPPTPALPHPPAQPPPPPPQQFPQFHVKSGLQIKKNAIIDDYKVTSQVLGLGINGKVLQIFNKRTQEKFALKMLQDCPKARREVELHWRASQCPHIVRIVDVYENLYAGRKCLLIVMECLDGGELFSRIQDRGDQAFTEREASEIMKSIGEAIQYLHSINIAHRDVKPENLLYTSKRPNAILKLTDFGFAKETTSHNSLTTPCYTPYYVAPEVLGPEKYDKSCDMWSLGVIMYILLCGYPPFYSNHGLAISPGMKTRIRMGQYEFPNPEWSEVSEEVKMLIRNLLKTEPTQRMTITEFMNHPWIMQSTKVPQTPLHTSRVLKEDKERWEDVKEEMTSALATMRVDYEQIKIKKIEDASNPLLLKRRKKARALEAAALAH

[28] = Protein binding in mouse plasma; format: ADME, cell-free; conditions: read-out: PPB (converted)
[29] = AUC (0 to last) in CD-1 nude mouse at 55 mg/ml, po; format: ADME, organism-based; parameters: dose 55 mg/ml, route oral, time 0 - last; conditions: in vivo
[30] = biological target: T1, Dual specificity protein kinase TTK (Homo sapiens, UniProt P33981); assay: Competitive inhibition of TTK (unknown origin) by double reciprocal plot analysis in presence of ATP
T1 sequence (P33981 whole entry): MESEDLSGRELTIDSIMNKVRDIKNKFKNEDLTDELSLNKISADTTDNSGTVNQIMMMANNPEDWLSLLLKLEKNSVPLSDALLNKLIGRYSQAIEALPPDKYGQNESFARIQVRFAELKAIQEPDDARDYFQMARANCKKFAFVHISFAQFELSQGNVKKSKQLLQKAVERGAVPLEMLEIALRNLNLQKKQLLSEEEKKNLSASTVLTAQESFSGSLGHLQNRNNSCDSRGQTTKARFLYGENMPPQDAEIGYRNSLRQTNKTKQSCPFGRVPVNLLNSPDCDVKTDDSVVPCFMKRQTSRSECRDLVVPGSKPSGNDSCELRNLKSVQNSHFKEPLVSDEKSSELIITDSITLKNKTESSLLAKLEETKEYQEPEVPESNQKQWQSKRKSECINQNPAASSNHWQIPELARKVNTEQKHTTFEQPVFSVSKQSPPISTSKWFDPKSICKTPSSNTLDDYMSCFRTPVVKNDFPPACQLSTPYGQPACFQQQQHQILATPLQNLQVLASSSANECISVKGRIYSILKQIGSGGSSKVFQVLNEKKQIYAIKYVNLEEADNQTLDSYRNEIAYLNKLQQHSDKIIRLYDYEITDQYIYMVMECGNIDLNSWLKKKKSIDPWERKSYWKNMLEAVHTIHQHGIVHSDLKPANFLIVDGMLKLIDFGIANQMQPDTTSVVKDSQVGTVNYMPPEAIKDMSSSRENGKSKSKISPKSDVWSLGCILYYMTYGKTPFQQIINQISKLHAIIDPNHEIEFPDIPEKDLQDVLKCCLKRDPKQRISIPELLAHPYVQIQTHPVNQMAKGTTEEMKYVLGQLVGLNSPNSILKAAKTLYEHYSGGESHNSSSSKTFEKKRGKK

[31] = Cmax in CD-1 nude mouse at 55 mg/ml, po; format: ADME, organism-based; parameters: dose 55 mg/ml, route oral; conditions: in vivo
[32] = Clearance in Sprague-Dawley rat at 1 mg/ml, iv; format: ADME, organism-based; conditions: in vivo
[33] = AUC (0 to infinity) in Sprague-Dawley rat at 1 mg/ml, iv; format: ADME, organism-based; parameters: dose 1 mg/ml, time infinity, route intravenous; conditions: in vivo
[34] = biological target: T2, Aurora kinase A (Homo sapiens, UniProt O14965); assay: Inhibition of full length recombinant human N-terminal His6-tagged Aurora A expressed in Sf21 cells by radiometric assay
T2 sequence (O14965 whole entry): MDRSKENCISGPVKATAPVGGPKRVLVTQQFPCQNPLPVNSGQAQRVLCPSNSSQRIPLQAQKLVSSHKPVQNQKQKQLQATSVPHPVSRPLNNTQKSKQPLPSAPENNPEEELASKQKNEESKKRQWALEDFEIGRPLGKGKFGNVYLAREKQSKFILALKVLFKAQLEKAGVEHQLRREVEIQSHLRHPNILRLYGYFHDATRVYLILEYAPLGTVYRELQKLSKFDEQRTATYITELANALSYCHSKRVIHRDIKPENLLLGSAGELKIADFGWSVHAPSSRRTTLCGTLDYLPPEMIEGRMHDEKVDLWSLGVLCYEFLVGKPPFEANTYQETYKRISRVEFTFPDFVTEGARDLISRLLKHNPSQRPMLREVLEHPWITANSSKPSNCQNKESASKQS

[35] = AUC (0 to last) in CD-1 nude mouse at 70 mg/ml, po; format: ADME, organism-based; parameters: dose 70 mg/ml, time 0 - last, route oral; conditions: in vivo
[36] = Half life in Sprague-Dawley rat at 1 mg/ml, iv; format: ADME, organism-based; conditions: in vivo

IC50 [1]: > 50000 nM | half-life [2]: 0.767 h | half-life [3]: > 1 h | Cmax [4]: 3200 ng/mL | GI50 [5]: 160 nM | GI50 [6]: 15 nM | Vd [7]: 2.8 L | fraction unbound [8]: 0.028 | GI50 [9]: 32 nM | IC50 [10]: 800 nM | Cmax [11]: 411 ng/mL | AUC(0-t) [12]: 1530 ng·h/mL | Cmax [13]: 841 ng/mL | Cmax [14]: 7700 ng/mL | bioavailability [15]: 97% | Cmax [16]: 890 ng/mL | inhibition [17]: 0% | AUC(0-t) [19]: 19100 ng·h/mL | AUC(0-t) [20]: 25000 ng·h/mL | AUC(0-inf) [22]: 4230 ng·h/mL | half-life [23]: > 1 h | half-life [24]: 1.7 h | Cmax [26]: 2900 ng/mL | inhibition [27]: -8% | fraction unbound [28]: 0.016 | AUC(0-t) [29]: 38100 ng·h/mL | Ki [30]: 0.77 nM | Cmax [31]: 7600 ng/mL | clearance [32]: 19 mL/min/kg | AUC(0-inf) [33]: 871 ng·h/mL | IC50 [34]: > 50000 nM | AUC(0-t) [35]: 53000 ng·h/mL | half-life [36]: 1.53 h
Compound: Cc1cc(-c2cnn3c(NCC4CCOCC4)nc(Oc4ccccc4)nc23)ccc1C(=O)NC1CC1
GI50 [18]: 190 nM | GI50 [21]: 13 nM | GI50 [25]: 30 nM
